In paper PMC10609061, “Detection of Various Traditional Chinese Medicinal Metabolites as Angiotensin-Converting Enzyme Inhibitors: Molecular Docking, Activity Testing, and Surface Plasmon Resonance Approaches” (Molecules, 2023):

Assays:
[1] = test system: ACE1 (angiotensin-converting enzyme); assay: ACE inhibition measurement with ACE1 activity test kit (fluorescence); assay type: biochemical; details: for Inhibition rate (%) of ACE1 activity, relative to captopril taken as 100%: TCM metabolite at 25 uM
[2] = biological target: T1, recombinant soluble C domain of ACE1 (sACE1) (Homo sapiens, UniProt P12821); assay: SPR determination of affinity between TCM metabolites and immobilized sACE1 (Biacore T200, CM5 chip); assay type: binding; details: for Binding to sACE1 by SPR (in words): SPR assay; for Kd: SPR, sACE1 on CM5 chip, 0.39-50.0 µM metabolite, 25 °C, read-out: KD (equilibrium dissociation constant)
T1 construct: The cDNA coding for the soluble C domain of ACE1 (Ile640-Ala1231) was obtained by PCR amplification; HSA signal peptide (N); made in house; host or cells: HEK293 (transient transfection, protein purified from the culture supernatant)
T1 sequence (P12821 640-1231): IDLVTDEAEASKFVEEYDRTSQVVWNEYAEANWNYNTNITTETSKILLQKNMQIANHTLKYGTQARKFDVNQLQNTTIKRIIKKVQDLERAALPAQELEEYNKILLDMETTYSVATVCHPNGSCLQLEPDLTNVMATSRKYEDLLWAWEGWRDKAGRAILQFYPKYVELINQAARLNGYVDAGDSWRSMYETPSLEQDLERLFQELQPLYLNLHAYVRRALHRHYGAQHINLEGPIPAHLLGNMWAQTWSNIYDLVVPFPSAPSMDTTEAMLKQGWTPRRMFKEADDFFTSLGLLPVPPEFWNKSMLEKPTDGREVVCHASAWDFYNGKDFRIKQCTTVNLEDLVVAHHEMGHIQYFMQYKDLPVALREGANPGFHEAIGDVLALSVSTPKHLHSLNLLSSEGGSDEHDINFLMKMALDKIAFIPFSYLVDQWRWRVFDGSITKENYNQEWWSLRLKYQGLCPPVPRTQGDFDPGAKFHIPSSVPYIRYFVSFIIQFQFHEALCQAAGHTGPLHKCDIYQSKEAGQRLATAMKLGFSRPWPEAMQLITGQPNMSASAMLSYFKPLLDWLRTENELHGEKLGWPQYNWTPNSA

| Compound | Inhibition rate (%) of ACE1 activity ([1]; captopril (positive control) at 1 uM) | Binding to sACE1 by SPR (in words) [2] | Kd [2] | Inhibition rate (%) of ACE1 activity, relative to captopril taken as 100% [1] | ACE1 inhibition in vitro (in words) ([1]; enzyme activity test) |
| --- | --- | --- | --- | --- | --- |
| C[C@H](CS)C(=O)N1CCC[C@H]1C(=O)O [Captopril, reference compound] | 101.5% |  |  |  |  |
| Oc1cc(O)c2c(c1)O[C@H](c1ccc(O)c(O)c1)[C@@H](O)C2 [Cianidanol] |  | bound to sACE1 on the chip in a dose-dependent manner | 48.3 µM |  |  |
| O=c1cc(-c2ccc(O)c(O)c2)oc2cc(O)c([C@@H]3O[C@H](CO)[C@@H](O)[C@H](O)[C@H]3O)c(O)c12 [Homoorientin] |  | bound to sACE1 on the chip in a dose-dependent manner | 10.2 µM |  |  |
| O=c1c(O[C@@H]2O[C@H](CO)[C@@H](O)[C@H](O)[C@H]2O)c(-c2ccc(O)c(O)c2)oc2cc(O)cc(O)c12 [Isoquercitrin] |  | bound to sACE1 on the chip in a dose-dependent manner | 5.76 µM | 35.6% |  |
| O=c1cc(-c2ccc(O)c(O)c2)oc2c([C@@H]3O[C@H](CO)[C@@H](O)[C@H](O)[C@H]3O)c(O)cc(O)c12 [Orientin] |  | bound to sACE1 on the chip in a dose-dependent manner | 9.32 µM |  |  |
| O=c1c(-c2ccc(O)cc2)coc2c([C@@H]3O[C@H](CO)[C@@H](O)[C@H](O)[C@H]3O)c(O)ccc12 [Puerarin] |  | bound to sACE1 on the chip in a dose-dependent manner | 13.8 µM |  |  |
| O=c1c(O)c(-c2ccc(O)c(O)c2)oc2cc(O)cc(O)c12 [Quercetin] |  | bound to sACE1 on the chip in a dose-dependent manner |  |  |  |
| Oc1ccc(/C=C/c2cc(O)cc(O)c2)cc1 [Resveratrol] |  |  |  |  | did not inhibit ACE1 in vitro |
| Procyanidin |  | bound to sACE1 on the chip in a dose-dependent manner |  | 67.5% |  |
